Laboratory results: patent publication US20250122567A1, “Methods of Identifying and Treating Subjects having Inflammatory Subphenotypes of Asthma” (National Jewish Health, priority 2015, published 2025)

Legend:
DPP4 = test: IL-13 treatment of ALI differentiated bronchial epithelial cells, DPP4 expression; assay type: cell-based; conditions: IL-13 10 ng/ml, 24 hours
Description: FIGS. 12A and 12B show pairs of Air-liquid interface (ALI) differentiated bronchial epithelial cells (BEC) from 5 donors that were treated for 24 hours with IL-13 cytokine (10 ng/ml) and vehicle control. (FIG. 12A) RNA was extracted from all control and IL-13 treated ALI membranes. RNA was used in 5′ nuclease qPCR assays to determine DPP4 and housekeeping gene expression. Normalized DPP4 expression for the control and IL-13 treated cultures of a subject are connected by a line. Well-differential nasal airway epithelial cultures were generated and tested for a single donor denoted by red points. (FIG. 12B) Western blot of cell lysates for DPP4 in control and IL-13 treated BECs from all five donors.

HRV-16 = HRV-16 infection of ALI differentiated airway epithelial cells treated with IL-13; assay type: cell-based, human rhinovirus-16; conditions: IL-13 10 ng/ml for final 10 days of differentiation, BECs and NECs, vs vehicle

Substance: IL-13: Th2 cytokine used to treat airway epithelial cell cultures (10 ng/ml)
- DPP4 gene expression in airway epithelial cells (DPP4; ALI differentiated BEC from 5 donors, qPCR, vs vehicle control): strongly induced
- DPP4 protein expression in airway epithelial cells (DPP4; BEC cell lysates from five donors, Western blot, vs control): strongly induced
- HRV-16 infection (mRNA) of ALI differentiated airway epithelial cells (HRV-16): decreases HRV-16 infection
